Data as given in patent publication US6286513A, “Methods for treating superficial bladder carcinoma” (priority 1998, dated 2001).
“Also recorded” adds a separate entry of the source.

Tests used:
[1] = Toxicity comparison of high efficacy and customary intravesical MMC therapy (Table 1); assay type: in vivo, patients
[2] = system: superficial bladder carcinomas; conditions: customary experimental MMC, weekly, 1 mg/ml in 20-40 ml, six to eight weeks; cited from earlier work
[3] = system: Ta, T1 or Tis bladder tumors; test: Clinical trial of adjuvant intravesical MMC after transurethral resection: recurrence in Ta, T1 or Tis bladder tumor patients (Example 1, Table 2, FIG. 1); assay type: in vivo; conditions: for median time to recurrence: all patients (Ta, T1, Tis); for percentage of patients projected to be tumor recurrence-free at the end of 5 years: all patients, Kaplan-Meier projection
Experimental: One hundred and eight patients with histologically proven primary or recurrent transitional cell carcinoma of grade I to grade III and of stage Ta, T1 or Tis who had their tumors completely resected received the high efficacy therapy within 4 weeks after surgery.
The high efficacy therapy was administered once weekly for a total of six treatments. The MMC dosing solution was made by adding 40 mg of MMC to a vial containing 20 ml of sterile water.
To reduce urine production in the patients during treatment with the MMC dosing solution, the patients were instructed to refrain from fluids for 8 hours prior to and during treatment with the MMC dosing solution. To maintain the pH levels of the urine produced during treatment with the MMC dosing solution, the patients were given 1.3 grams of sodium bicarbonate the night prior to treatment, upon rising on the morning of treatment and 30 minutes prior to treatment. Then a Foley catheter was placed in the bladder of the patients and the bladder was drained by gravity. This was accomplished by holding the catheter end below the level of the bladder. The post void residual urine volume was determined using a bladder ultrasound machine. Drainage of the bladder was repeated until the residual urine volume was less than 10 ml. Drainage was aided by having the patient sit up or stand up, or reach forward while standing. Thereafter, 40 mg of MMC in 20 ml sterile water was instilled intravesically by gravity into the bladder of the patient and retained there for 2 hours. After the 2 hour therapy, bladder contents were drained from the patients and the volume and pH of the contents measured.
For purposes of comparison, 97 matching control patients from whom primary Ta, T1 or Tis bladder tumors had been completely resected were subjected to the customary experimental MMC intravesical therapy weekly for six weeks. These patients were not instructed to refrain from fluids for 8 hours prior to or during the customary experimental therapy. Prior to instillation of the 1 mg/ml MMC dosing solution, the patients were placed in the supine or dorsal lithotomy position and a Foley catheter inserted transurethrally into the bladder of the patients. The bladders were drained by gravity and the post void urine residual volume was measured. No attempts were made to further reduce the residual urine volume. Thereafter, 20 mg of MMC in 20 ml sterile water was instilled intravesically by gravity into the bladders of the patients and retained for 2 hours. After the 2 hour therapy, bladder contents were drained from the patients and the volume and pH of the contents measured.
Cytoscopy was performed on each surviving patient quarterly at three months for 2 years and then at 3 months or six months for the remaining 3 years to look for evidence of visible tumors. Urine cytology was performed on each surviving patient quarterly at three months for 2 years and then at 3 months or six months for the remaining 3 years to look for cells with aneuploid DNA contents. […] If necessary, i.e., if tumor recurrence was suspected, the follow-up included biopsy of the suspicious area and transurethral resection of the bladder tumor. Patients with proven recurrence were treated according to standards in the clinical community.
At each time period the number of patients who had developed histologically proven recurrent or progressive disease on biopsy or cytology was determined. The percentage of patients who remained tumor free at each time period after receiving the high efficacy therapy or the customary experimental therapy is shown in FIG. 1.
The Kaplan-Meier Curve is a conventional tool used to project treatment outcome such as the % of patients who remain alive or free of disease at a certain time interval. (Martin Bland, Introduction to Medical Statistics (1994) Oxford Press). The Kaplan Meier Curve was used to compare the customary experimental therapy to the high efficacy therapy. […]

[4] = system: large tumors, i.e. tumors >5 cm; test: Recurrence in patients with large tumors; assay type: in vivo; conditions: high efficacy therapy; large tumors >5 cm
[5] = previous studies, cited from earlier work
T1 tumors = test: Recurrence in patients with T1 tumors (Kaplan-Meier); assay type: in vivo
Text: The Kaplan-Meier Curve is a conventional tool used to project treatment outcome such as the % of patients who remain alive or free of disease at a certain time interval. (Martin Bland, Introduction to Medical Statistics (1994) Oxford Press). The Kaplan Meier Curve was used to compare the customary experimental therapy to the high efficacy therapy. When compared to the customary experimental therapy, the high efficacy therapy increased the percentage of all patients who are projected to remain recurrence-freefor longer than 5 years from 20 to 41%. The improvement was similar for patients with T1 tumors which were growing in the deeper bladder tissue layers (i.e. increase from 16% to 44%) and for patients with Ta tumors which were growing in the urothelial surface of the bladder (i.e. increase from 20% to 37%).

aneuploid tumors = test: Recurrence in patients with aneuploid tumors; assay type: in vivo; conditions: high efficacy therapy
[6] = customary experimental MMC intravesical therapy

COC12C(COC(N)=O)C3=C(C(=O)C(C)=C(N)C3=O)N1CC1NC12 (centres unmarked) [MMC]
Allergy ([1]; Customary (n = 96)): 9 % of patients
Any toxicity ([1]; Customary (n = 96)): 64 % of patients
Cramp ([1]; Customary (n = 96)): 17 % of patients
Cystitis ([1]; Customary (n = 96)): 18 % of patients
Dermal ([1]; Customary (n = 96)): 10 % of patients
Dysuria ([1]; Customary (n = 96)): 19 % of patients
Fatigue ([1]; Customary (n = 96)): 20 % of patients
Fever ([1]; Customary (n = 96)): 5 % of patients
Hematuria ([1]; Customary (n = 96)): 24 % of patients
Leukopenia ([1]; Customary (n = 96)): 0 % of patients
Malaise ([1]; Customary (n = 96)): 19 % of patients
Nausea ([1]; Customary (n = 96)): 9 % of patients
Pain ([1]; Customary (n = 96)): 17 % of patients
Thrombocytopenia ([1]; Customary (n = 96)): 0 % of patients
Urgency ([1]; Customary (n = 96)): 28 % of patients
Urinary frequency ([1]; Customary (n = 96)): 33 % of patients
Vomiting ([1]; Customary (n = 96)): 5 % of patients
Allergy ([1]; High efficacy (n = 104)): 13 % of patients
Any toxicity ([1]; High efficacy (n = 104)): 72 % of patients
Cramp ([1]; High efficacy (n = 104)): 15 % of patients
Cystitis ([1]; High efficacy (n = 104)): 24 % of patients
Dermal ([1]; High efficacy (n = 104)): 15 % of patients
Dysuria ([1]; High efficacy (n = 104)): 35 % of patients
Fatigue ([1]; High efficacy (n = 104)): 19 % of patients
Fever ([1]; High efficacy (n = 104)): 5 % of patients
Hematuria ([1]; High efficacy (n = 104)): 26 % of patients
Leukopenia ([1]; High efficacy (n = 104)): 1 % of patients
Malaise ([1]; High efficacy (n = 104)): 18 % of patients
Nausea ([1]; High efficacy (n = 104)): 12 % of patients
Pain ([1]; High efficacy (n = 104)): 17 % of patients
Thrombocytopenia ([1]; High efficacy (n = 104)): 0 % of patients
Urgency ([1]; High efficacy (n = 104)): 22 % of patients
Urinary frequency ([1]; High efficacy (n = 104)): 26 % of patients
Vomiting ([1]; High efficacy (n = 104)): 4 % of patients
bone marrow toxicity ([1]; high efficacy therapy): did not exhibit any signs of bone marrow toxicity
dysuria, frequency and severity ([1]; high efficacy therapy): higher frequency of dysuria. But this toxicity was mild and did not result in termination of treatment
other toxicities (dysuria, cystitis, hematuria, cramps), severity ([1]; high efficacy therapy, a small number of patients): mild
additional patients without recurrent tumor at 1 year vs transurethral resection alone [2]: 1-13%
median time to recurrence [3, 6]: 292 days
percentage of patients projected to be tumor recurrence-free at the end of 5 years [3, 6]: 20%
percentage of patients projected to remain tumor recurrence free for 5 years, vs customary therapy ([3]; high efficacy therapy, Ta, T1, Tis): more effective in enhancing the percentage or fraction of Ta, T1, Tis bladder tumor patients that are projected to remain tumor recurrence free for a period of 5 years
rate of recurrence and time interval before tumor recurrence, vs customary therapy ([3]; high efficacy therapy, Ta, T1 or Tis): more effective at reducing the rate of recurrence and increasing the time interval before tumor recurrence is observed; also recorded: tumors recurred at a later time in patients receiving the high efficacy treatment
median time to recurrence ([3]; high efficacy therapy): 754 days
percentage of patients projected to be tumor recurrence-free at the end of 5 years ([3]; high efficacy therapy): 41%
delaying and preventing tumor recurrence, vs customary therapy [4]: more effective
systemic dose without significant host toxicity ([5]; MMC given systemically): ≤ 50 mg
blood level of MMC without significant host toxicity [5]: below 400 ng/ml
percentage of patients projected to remain recurrence-free for longer than 5 years (T1 tumors; customary experimental therapy): 16%
percentage of patients projected to remain recurrence-free for longer than 5 years (T1 tumors; high efficacy therapy): 44%
delaying and preventing tumor recurrence, vs customary therapy (aneuploid tumors): more effective
